Assay results from ChEMBL document CHEMBL1781983, “Hop (Humulus lupulus)-derived bitter acids as multipotent bioactive compounds” (J Nat Prod, 2009).
pIC50: −log10 of the molar value.

Tests used:
Mus musculus [1] = assay: Antiinflammatory activity in mouse assessed as inhibition of TPA-induced ear edema measured per ear; assay type: functional
Osteoclast = assay: Inhibition of osteoporotic lesion formation in ICR mouse osteoclasts bone cells using ivory pieces after 2 days by pit formation assay; assay type: functional, cell-based; conditions: 48 h
Chorioallantoic membrane = assay: Inhibition of angiogenesis in chick embryo chorioallantoic membranes; assay type: functional; conditions: Gallus gallus
[2] = Antiangiogenic activity against bFGF-indeced mouse KOP2.16 cells assessed as reduction in cell growth at 10 uM; assay type: functional
[3] = Antioxidant activity assessed as inhibition of lipid peroxidation; assay type: functional
[4] = biological target: T1, Prostaglandin G/H synthase 2 (Mus musculus, UniProt Q05769); assay: Inhibition of COX2-mediated PGE2 production in TNF-alpha-induced mouse MC3T3-E1 cells
T1 sequence (Q05769 whole entry): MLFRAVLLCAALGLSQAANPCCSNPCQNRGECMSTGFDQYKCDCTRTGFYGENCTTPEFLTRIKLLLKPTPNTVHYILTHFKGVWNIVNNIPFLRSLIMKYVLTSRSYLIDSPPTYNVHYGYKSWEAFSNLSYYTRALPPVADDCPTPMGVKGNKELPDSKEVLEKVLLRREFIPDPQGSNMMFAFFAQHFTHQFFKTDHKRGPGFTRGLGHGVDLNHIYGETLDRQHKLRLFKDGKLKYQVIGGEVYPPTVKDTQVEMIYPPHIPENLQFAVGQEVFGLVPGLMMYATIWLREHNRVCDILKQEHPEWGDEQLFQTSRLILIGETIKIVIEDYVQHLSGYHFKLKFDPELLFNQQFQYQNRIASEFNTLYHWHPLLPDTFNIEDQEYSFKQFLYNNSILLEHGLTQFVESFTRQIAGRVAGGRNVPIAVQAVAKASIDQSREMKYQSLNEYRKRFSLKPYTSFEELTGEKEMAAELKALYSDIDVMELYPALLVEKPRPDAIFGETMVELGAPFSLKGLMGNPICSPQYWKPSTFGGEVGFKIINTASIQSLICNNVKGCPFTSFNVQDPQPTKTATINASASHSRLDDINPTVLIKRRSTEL

[5] = test system: Radical scavenging activity; assay: Antioxidant activity assessed as DPPH radical scavenging activity; assay type: functional
[6] = Antioxidant activity in human RBC assessed as inhibition of hydrogen peroxide-induced hemolysis after 3 hrs; assay type: functional, cell-based; conditions: erythrocyte
U-937 = assay: Antiproliferative activity against human U937 cells
Mus musculus [7] = assay: Antiangiogenic activity in mouse at 0.01%, po for 21 days; assay type: functional

| pIC50 (Osteoclast) | pIC50 [3] | pIC50 [4] | pIC50 [5] | pIC50 (U-937) | SMILES | ID50 (Mus musculus [1]) | ED50 (Chorioallantoic membrane) | inhibition at 10 µM [2] | pIC50 [6] | inhibition (INH) (Mus musculus [7]) |
| --- | --- | --- | --- | --- | --- | --- | --- | --- | --- | --- |
| 8.23 | 5.10 | 7.52 | 4.49 | 5.47 | CC(C)=CCC1C(=O)C(C(=O)CC(C)C)=C(O)C(O)(CC=C(C)C)C1=O (centres undefined) [HUMULONE] | 0.2 mg | 1.5 µg | 20% | 4.55 |  |
|  |  |  |  |  | C[C@]12CCC(=O)C=C1CC[C@@H]1[C@@H]2[C@@H](O)C[C@@]2(C)[C@H]1CC[C@]2(O)C(=O)CO [HYDROCORTISONE] | 0.03 mg |  |  |  |  |
|  |  |  |  |  | COc1ccc2c(c1)c(CC(=O)O)c(C)n2C(=O)c1ccc(Cl)cc1 [INDOMETHACIN] | 0.3 mg |  |  |  |  |
|  | 4.41 |  | 4.60 |  | CC(C)=CCC1=C(O)C(C(=O)CC(C)C)=C(O)C(CC=C(C)C)(CC=C(C)C)C1=O [LUPULONE] |  |  |  |  | 50% |
